Molecules are shown by their SMILES. Where only a bound is given, the exact number is not on record here.

Sequence of Cytochrome P450 2C9 (P11712 whole entry): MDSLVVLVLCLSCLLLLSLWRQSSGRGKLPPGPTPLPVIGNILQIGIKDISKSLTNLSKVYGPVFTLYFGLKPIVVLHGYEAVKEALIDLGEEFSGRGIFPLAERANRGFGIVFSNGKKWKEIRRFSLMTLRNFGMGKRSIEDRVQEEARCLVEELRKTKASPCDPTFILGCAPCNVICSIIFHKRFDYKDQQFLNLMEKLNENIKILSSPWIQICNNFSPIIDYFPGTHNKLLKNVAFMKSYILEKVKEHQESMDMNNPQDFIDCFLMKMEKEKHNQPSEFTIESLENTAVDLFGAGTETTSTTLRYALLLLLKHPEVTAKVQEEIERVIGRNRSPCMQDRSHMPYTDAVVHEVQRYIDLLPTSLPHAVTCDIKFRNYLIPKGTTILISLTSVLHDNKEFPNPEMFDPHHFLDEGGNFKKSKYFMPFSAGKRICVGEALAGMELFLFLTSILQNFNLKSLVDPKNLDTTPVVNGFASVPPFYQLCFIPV

System in the first series: not listed separately
Briefly: Half life in Sprague-Dawley rat at 0.5 mg, iv and 2.0 mg, po. Type of series: ADME, organism-based. The following applies: in vivo.
One may read the half-life as the time needed for the level to fall by half in the phase considered. `Cc1c(Oc2ccc(Cl)cc2)c2ccc(Cl)nc2n1Cc1ccc(Cl)c(O[C@@H](C)C(=O)O)c1` showed a half-life of 72 min.
The same measure, in the same setting: with `Cc1c(Oc2ccc(Cl)cc2)c2cccnc2n1Cc1cc(O[C@@H](C)C(=O)O)ccc1Cl` the figure was 72 min; with `Cc1c(C(=O)c2ccc(Cl)cc2)c2ccc(OC(F)(F)F)cc2n1Cc1cccc(O[C@@H](C)C(=O)O)c1`, 90 min.

The next series deals with Mus musculus. The series can be described thus: Antiglycemic activity in db/db mouse assessed as glucose correction at 30 mg/kg, po administered daily for 11 days.
Details: not given
Type of series: functional.
Take `COc1ccc(C(=O)c2c(C)n(Cc3cc(O[C@@H](C)C(=O)O)ccc3Cl)c3nc(OC)ccc23)cc1`: the Activity came to 32%.
The same measure, in the same setting: with `Cc1c(Oc2ccc(Cl)cc2)c2ccc(Cl)nc2n1Cc1ccc(Cl)c(O[C@@H](C)C(=O)O)c1` the figure was 44%.

System in a further series: not listed separately
Briefly: Bioavailability in Sprague-Dawley rat at 0.5 mg, iv and 2.0 mg, po. The class given is ADME, organism-based. Particulars: in vivo.
Broadly, the bioavailability is the share of a dose that reaches the circulation, judged against a reference dose that is usually intravenous. On to `Cc1c(Oc2ccc(Cl)cc2)c2ccc(Cl)nc2n1Cc1ccc(Cl)c(O[C@@H](C)C(=O)O)c1`, for which the bioavailability was found to be 56%.
Molecule `Cc1c(Oc2ccc(Cl)cc2)c2cccnc2n1Cc1cc(O[C@@H](C)C(=O)O)ccc1Cl` yielded a bioavailability of 61%.
`Cc1c(C(=O)c2ccc(Cl)cc2)c2ccc(OC(F)(F)F)cc2n1Cc1cccc(O[C@@H](C)C(=O)O)c1` came in with a bioavailability of 45%.

The target of the next series is T1, Peroxisome proliferator-activated receptor gamma (Homo sapiens, UniProt P37231).
T1 sequence (P37231 whole entry): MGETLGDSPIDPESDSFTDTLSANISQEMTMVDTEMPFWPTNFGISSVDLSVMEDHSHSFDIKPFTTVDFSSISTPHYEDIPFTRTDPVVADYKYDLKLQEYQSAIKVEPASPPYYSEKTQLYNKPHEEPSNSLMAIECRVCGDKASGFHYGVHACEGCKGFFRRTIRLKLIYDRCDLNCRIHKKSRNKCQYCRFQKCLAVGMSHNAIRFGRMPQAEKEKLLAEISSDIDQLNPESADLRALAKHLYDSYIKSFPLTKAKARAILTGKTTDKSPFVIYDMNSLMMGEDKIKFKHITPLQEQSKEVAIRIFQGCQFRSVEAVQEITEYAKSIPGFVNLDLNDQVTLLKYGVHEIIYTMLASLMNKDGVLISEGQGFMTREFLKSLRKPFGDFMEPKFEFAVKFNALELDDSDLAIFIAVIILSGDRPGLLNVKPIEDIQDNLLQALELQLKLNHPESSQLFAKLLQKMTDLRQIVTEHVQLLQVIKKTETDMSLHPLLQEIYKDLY
Briefly: Agonist activity at human PPARgamma receptor expressed in african green monkey COS cells after 48 hrs by GAL4 transactivation assay. Type of series: functional, cell-based.
Details: not given
A word on the EC50: it is the concentration that produces a half-maximal response. For the molecule `COc1ccc(C(=O)c2c(C)n(Cc3ccc(Cl)c(O[C@@H](C)C(=O)O)c3)c3nc(OC)ccc23)cc1`, the EC50 came out at 1 nM.
With `COc1ccc(C(=O)c2c(C)n(Cc3cc(O[C@@H](C)C(=O)O)ccc3Cl)c3nc(OC)ccc23)cc1`, the EC50 was found to be 2 nM.
Same read-out and setting: under `Cc1c(Oc2ccc(Cl)cc2)c2cccnc2n1Cc1ccc(F)c(O[C@@H](C)C(=O)O)c1` stands 140 nM.
With `Cc1c(Oc2ccc(Cl)cc2)c2ccc(Cl)nc2n1Cc1ccc(Cl)c(O[C@@H](C)C(=O)O)c1`, the EC50 turned out to be 4 nM.
Same read-out and setting: under `Cc1c(Oc2ccc(Cl)cc2)c2ccc(F)nc2n1Cc1cc(O[C@@H](C)C(=O)O)ccc1Cl` stands 4 nM; under `Cc1c(Oc2ccc(Cl)cc2)c2cccnc2n1Cc1cc(O[C@@H](C)C(=O)O)ccc1Cl`, 36 nM; under `Cc1c(C(=O)c2ccc(Cl)cc2)c2ccc(OC(F)(F)F)cc2n1Cc1cccc(O[C@@H](C)C(=O)O)c1`, 1 nM.
For `Cc1c(Oc2ccc(Cl)cc2)c2ccc(F)nc2n1Cc1ccc(F)c(O[C@@H](C)C(=O)O)c1`, the EC50 stood at 94 nM.
Still for that read-out and setting: under `COc1ccc(C(=O)c2c(C)n(Cc3ccc(F)c(O[C@@H](C)C(=O)O)c3)c3ncccc23)cc1` stands 3 nM.

In a further series the target is T1, Peroxisome proliferator-activated receptor gamma. The series can be described thus: Displacement of [3H]2AD-5075 from GST-tagged human PPARgamma receptor expressed in Escherichia coli BL21.
Details: not given
For orientation: Displacement assays read how much labelled ligand stays bound in the presence of the test substance.
The term IC50 denotes the concentration that inhibits the measured activity by half. Regarding `COc1ccc(C(=O)c2c(C)n(Cc3ccc(Cl)c(O[C@@H](C)C(=O)O)c3)c3nc(OC)ccc23)cc1`, the half-inhibitory concentration (IC50) is < 1 nM.
Take `COc1ccc(C(=O)c2c(C)n(Cc3cc(O[C@@H](C)C(=O)O)ccc3Cl)c3nc(OC)ccc23)cc1`: the IC50 worked out at 2 nM.
The same measure, in the same setting: with `Cc1c(Oc2ccc(Cl)cc2)c2cccnc2n1Cc1ccc(F)c(O[C@@H](C)C(=O)O)c1` the figure was 106 nM; with `Cc1c(Oc2ccc(Cl)cc2)c2ccc(Cl)nc2n1Cc1ccc(Cl)c(O[C@@H](C)C(=O)O)c1`, 3 nM; with `Cc1c(Oc2ccc(Cl)cc2)c2ccc(F)nc2n1Cc1cc(O[C@@H](C)C(=O)O)ccc1Cl`, 15 nM.
Same read-out and setting: with `Cc1c(Oc2ccc(Cl)cc2)c2cccnc2n1Cc1cc(O[C@@H](C)C(=O)O)ccc1Cl` the figure was 25 nM; with `Cc1c(C(=O)c2ccc(Cl)cc2)c2ccc(OC(F)(F)F)cc2n1Cc1cccc(O[C@@H](C)C(=O)O)c1`, 1 nM.
As to `Cc1c(Oc2ccc(Cl)cc2)c2ccc(F)nc2n1Cc1ccc(F)c(O[C@@H](C)C(=O)O)c1`, the IC50 turned out to be 23 nM.
Molecule `COc1ccc(C(=O)c2c(C)n(Cc3ccc(F)c(O[C@@H](C)C(=O)O)c3)c3ncccc23)cc1` yielded an IC50 of 10 nM.

System in another series: not listed separately
The series can be described thus: Clearance in Sprague-Dawley rat at 0.5 mg, iv and 2.0 mg, po. Type of series: ADME, organism-based. The following applies: in vivo.
Molecule `Cc1c(Oc2ccc(Cl)cc2)c2ccc(Cl)nc2n1Cc1ccc(Cl)c(O[C@@H](C)C(=O)O)c1` gave a clearance of 27 mL/min/kg.
The same measure, in the same setting: under `Cc1c(Oc2ccc(Cl)cc2)c2cccnc2n1Cc1cc(O[C@@H](C)C(=O)O)ccc1Cl` stands 21.8 mL/min/kg.
On the same count and under the same terms, with `Cc1c(C(=O)c2ccc(Cl)cc2)c2ccc(OC(F)(F)F)cc2n1Cc1cccc(O[C@@H](C)C(=O)O)c1` the figure was 21.7 mL/min/kg.

A further series has as its target Cytochrome P450 2C9 (Homo sapiens, UniProt P11712). Briefly: Inhibition of CYP2C9. Type of series: ADME.
Details: not given
For `Cc1c(C(=O)c2ccc(Cl)cc2)c2ccc(OC(F)(F)F)cc2n1Cc1cccc(O[C@@H](C)C(=O)O)c1`, the 50% inhibitory concentration (IC50) was determined as 5.6 µM.

The target in another series is T2, Peroxisome proliferator-activated receptor delta (Homo sapiens, UniProt Q03181).
T2 sequence (Q03181 whole entry): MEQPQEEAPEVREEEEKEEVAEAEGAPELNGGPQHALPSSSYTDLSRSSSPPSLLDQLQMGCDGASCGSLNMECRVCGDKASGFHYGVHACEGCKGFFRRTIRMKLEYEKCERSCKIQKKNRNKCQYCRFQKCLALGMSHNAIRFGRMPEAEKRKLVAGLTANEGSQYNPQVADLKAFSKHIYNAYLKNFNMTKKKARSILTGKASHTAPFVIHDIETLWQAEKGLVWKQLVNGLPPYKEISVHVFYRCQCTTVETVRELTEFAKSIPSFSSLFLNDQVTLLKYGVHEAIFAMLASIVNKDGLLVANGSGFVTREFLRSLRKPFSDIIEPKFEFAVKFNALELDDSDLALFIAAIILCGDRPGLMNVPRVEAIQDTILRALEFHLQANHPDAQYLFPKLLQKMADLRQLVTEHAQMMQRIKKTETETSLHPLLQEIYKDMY
The series can be described thus: Binding affinity to PPARdelta.
Details: not given
Turning to `COc1ccc(C(=O)c2c(C)n(Cc3ccc(Cl)c(O[C@@H](C)C(=O)O)c3)c3nc(OC)ccc23)cc1`, the IC50 was > 50 µM.
The same measure, in the same setting: under `COc1ccc(C(=O)c2c(C)n(Cc3cc(O[C@@H](C)C(=O)O)ccc3Cl)c3nc(OC)ccc23)cc1` stands > 50 µM; under `Cc1c(Oc2ccc(Cl)cc2)c2cccnc2n1Cc1ccc(F)c(O[C@@H](C)C(=O)O)c1`, > 50 µM; under `Cc1c(Oc2ccc(Cl)cc2)c2ccc(Cl)nc2n1Cc1ccc(Cl)c(O[C@@H](C)C(=O)O)c1`, > 50 µM.
On the same count and under the same terms, under `Cc1c(Oc2ccc(Cl)cc2)c2ccc(F)nc2n1Cc1cc(O[C@@H](C)C(=O)O)ccc1Cl` stands > 50 µM.
For the molecule `Cc1c(Oc2ccc(Cl)cc2)c2cccnc2n1Cc1cc(O[C@@H](C)C(=O)O)ccc1Cl`, the IC50 is > 50 µM.
On to `Cc1c(Oc2ccc(Cl)cc2)c2ccc(F)nc2n1Cc1ccc(F)c(O[C@@H](C)C(=O)O)c1`, for which the IC50 was > 50 µM.
The same measure, in the same setting: with `COc1ccc(C(=O)c2c(C)n(Cc3ccc(F)c(O[C@@H](C)C(=O)O)c3)c3ncccc23)cc1` the figure was > 50 µM.

A further series has as its target T3, Peroxisome proliferator-activated receptor alpha (Homo sapiens, UniProt Q07869).
T3 sequence (Q07869 whole entry): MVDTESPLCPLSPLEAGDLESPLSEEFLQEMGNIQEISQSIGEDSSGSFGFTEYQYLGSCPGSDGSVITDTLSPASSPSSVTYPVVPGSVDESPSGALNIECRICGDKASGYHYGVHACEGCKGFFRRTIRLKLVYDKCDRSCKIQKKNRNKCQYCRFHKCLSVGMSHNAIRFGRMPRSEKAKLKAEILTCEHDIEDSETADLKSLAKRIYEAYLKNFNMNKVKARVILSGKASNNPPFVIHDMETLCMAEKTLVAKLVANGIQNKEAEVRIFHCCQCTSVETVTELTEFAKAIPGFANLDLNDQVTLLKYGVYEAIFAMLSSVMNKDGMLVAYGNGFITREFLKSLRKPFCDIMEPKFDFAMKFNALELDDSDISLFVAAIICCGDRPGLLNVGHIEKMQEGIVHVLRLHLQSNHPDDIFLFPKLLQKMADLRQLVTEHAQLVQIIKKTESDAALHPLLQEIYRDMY
The series can be described thus: Binding affinity to human PPARalpha.
Details: not given
As for `COc1ccc(C(=O)c2c(C)n(Cc3ccc(Cl)c(O[C@@H](C)C(=O)O)c3)c3nc(OC)ccc23)cc1`, the 50% inhibitory concentration (IC50) was > 50 µM.
Regarding `COc1ccc(C(=O)c2c(C)n(Cc3cc(O[C@@H](C)C(=O)O)ccc3Cl)c3nc(OC)ccc23)cc1`, the half-maximal inhibitory concentration (IC50) is > 50 µM.
Consider `Cc1c(Oc2ccc(Cl)cc2)c2cccnc2n1Cc1ccc(F)c(O[C@@H](C)C(=O)O)c1`, for which the IC50 is > 50 µM.
Turning to `Cc1c(Oc2ccc(Cl)cc2)c2ccc(Cl)nc2n1Cc1ccc(Cl)c(O[C@@H](C)C(=O)O)c1`, the IC50 is > 50 µM.
Same read-out and setting: with `Cc1c(Oc2ccc(Cl)cc2)c2ccc(F)nc2n1Cc1cc(O[C@@H](C)C(=O)O)ccc1Cl` the figure was > 50 µM; with `Cc1c(Oc2ccc(Cl)cc2)c2cccnc2n1Cc1cc(O[C@@H](C)C(=O)O)ccc1Cl`, > 50 µM.
Same read-out and setting: with `Cc1c(Oc2ccc(Cl)cc2)c2ccc(F)nc2n1Cc1ccc(F)c(O[C@@H](C)C(=O)O)c1` the figure was > 50 µM; with `COc1ccc(C(=O)c2c(C)n(Cc3ccc(F)c(O[C@@H](C)C(=O)O)c3)c3ncccc23)cc1`, > 50 µM.

Another series has as its system Mus musculus. The series can be described thus: Antiglycemic activity in db/db mouse assessed as glucose correction at 10 mg/kg, po administered daily for 11 days. The class given is functional.
Details: not given
On to `Cc1c(Oc2ccc(Cl)cc2)c2ccc(Cl)nc2n1Cc1ccc(Cl)c(O[C@@H](C)C(=O)O)c1`, for which the Activity is 32%.
For `CN(CCOc1ccc(CC2SC(=O)NC2=O)cc1)c1ccccn1` (stereo not drawn) [ROSIGLITAZONE], the Activity is reported as 90%.

The values above are taken from ChEMBL document CHEMBL1139415, “Highly functionalized 7-azaindoles as selective PPAR gamma modulators” (Bioorg Med Chem Lett, 2008).
